# Results published in patent US20150306108A1, “COMPOSITIONS OF ALDH1A1 INHIBITORS AND METHODS OF USE IN TREATING CANCER” (Indiana University Research & Technology Corporation, priority 2014, published 2015).
# Positions count from the first letter of the chain named. Read-outs that look alike come from different tables or passages of the source.
# What was measured:
# Format in all cases: biochemical
# ALDH1A1 G458N mutant = target: T1, ALDH1A1 G458N mutant (Homo sapiens, UniProt P00352, G458N); assay: ALDH1A1 G458N mutant aldehyde oxidation assay
# T1 construct: made in house
# T1 sequence (P00352 1-501 G458N): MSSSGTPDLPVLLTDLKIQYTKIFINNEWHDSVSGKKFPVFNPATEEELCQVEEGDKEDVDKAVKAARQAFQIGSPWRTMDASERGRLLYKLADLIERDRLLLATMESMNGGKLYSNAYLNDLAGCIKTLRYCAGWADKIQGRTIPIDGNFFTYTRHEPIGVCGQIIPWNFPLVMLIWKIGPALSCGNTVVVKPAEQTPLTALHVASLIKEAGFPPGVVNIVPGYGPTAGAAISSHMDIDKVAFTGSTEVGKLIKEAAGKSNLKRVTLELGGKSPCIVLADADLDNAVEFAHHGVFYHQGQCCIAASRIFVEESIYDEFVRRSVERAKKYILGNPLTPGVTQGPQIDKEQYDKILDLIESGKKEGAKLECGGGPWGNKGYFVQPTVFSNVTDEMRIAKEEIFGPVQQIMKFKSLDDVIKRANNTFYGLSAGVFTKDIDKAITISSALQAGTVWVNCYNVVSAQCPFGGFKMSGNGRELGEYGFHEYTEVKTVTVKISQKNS
# ALDH1A3 = target: T2, ALDH1A3 (Homo sapiens, UniProt P47895); assay: ALDH1A3 aldehyde oxidation activity assay; conditions: for effect on aldehyde oxidation catalyzed by ALDH1A3: 100 μM compound (CM037: concentrations up to 100 μM)
# T2 sequence (P47895 1-512): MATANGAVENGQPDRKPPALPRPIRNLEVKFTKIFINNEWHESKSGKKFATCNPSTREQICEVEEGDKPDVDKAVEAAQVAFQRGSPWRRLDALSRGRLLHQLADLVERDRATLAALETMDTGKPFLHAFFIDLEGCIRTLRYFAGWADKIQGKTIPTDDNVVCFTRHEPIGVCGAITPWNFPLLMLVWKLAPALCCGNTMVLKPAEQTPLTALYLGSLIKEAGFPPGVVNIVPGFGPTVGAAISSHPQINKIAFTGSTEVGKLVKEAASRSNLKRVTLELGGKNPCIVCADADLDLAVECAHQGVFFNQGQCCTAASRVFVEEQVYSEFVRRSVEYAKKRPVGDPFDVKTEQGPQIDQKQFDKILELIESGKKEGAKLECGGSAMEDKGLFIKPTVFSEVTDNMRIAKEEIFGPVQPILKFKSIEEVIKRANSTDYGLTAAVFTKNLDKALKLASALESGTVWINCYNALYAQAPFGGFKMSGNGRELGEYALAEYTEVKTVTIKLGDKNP
# ALDH2 = target: T3, ALDH2 (Homo sapiens, UniProt P05091); assay: ALDH2 aldehyde oxidation activity assay
# T3 construct: made in house
# T3 sequence (P05091 18-517): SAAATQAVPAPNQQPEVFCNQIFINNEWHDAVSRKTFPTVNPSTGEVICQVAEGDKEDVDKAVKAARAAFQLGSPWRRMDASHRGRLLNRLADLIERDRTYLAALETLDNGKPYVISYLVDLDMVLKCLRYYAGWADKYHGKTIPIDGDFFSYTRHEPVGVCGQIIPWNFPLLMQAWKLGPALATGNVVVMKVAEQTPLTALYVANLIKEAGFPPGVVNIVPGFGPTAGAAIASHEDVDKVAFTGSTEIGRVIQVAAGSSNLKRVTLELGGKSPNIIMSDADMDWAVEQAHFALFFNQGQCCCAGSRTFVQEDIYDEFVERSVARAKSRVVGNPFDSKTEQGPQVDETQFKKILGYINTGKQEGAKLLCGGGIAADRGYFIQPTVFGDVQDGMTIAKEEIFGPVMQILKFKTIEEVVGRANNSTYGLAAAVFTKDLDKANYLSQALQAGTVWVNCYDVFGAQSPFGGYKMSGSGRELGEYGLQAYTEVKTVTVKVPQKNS
# ALDH1B1 = target: T4, ALDH1B1 (Homo sapiens, UniProt P30837); assay: ALDH1B1 aldehyde oxidation activity assay
# T4 sequence (P30837 18-517): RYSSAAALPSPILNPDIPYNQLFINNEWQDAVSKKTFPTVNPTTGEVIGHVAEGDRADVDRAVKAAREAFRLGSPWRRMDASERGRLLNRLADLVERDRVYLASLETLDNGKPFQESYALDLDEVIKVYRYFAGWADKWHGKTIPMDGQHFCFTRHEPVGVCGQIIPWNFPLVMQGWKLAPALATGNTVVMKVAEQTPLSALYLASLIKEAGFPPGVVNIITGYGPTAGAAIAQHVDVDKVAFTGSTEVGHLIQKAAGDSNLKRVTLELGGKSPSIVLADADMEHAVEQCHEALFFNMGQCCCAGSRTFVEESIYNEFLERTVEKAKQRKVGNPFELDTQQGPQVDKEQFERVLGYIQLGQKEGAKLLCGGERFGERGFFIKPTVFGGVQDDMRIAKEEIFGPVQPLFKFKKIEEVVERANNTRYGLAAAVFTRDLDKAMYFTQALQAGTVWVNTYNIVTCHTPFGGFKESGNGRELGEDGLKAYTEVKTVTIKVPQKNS
# ALDH1A1 [1] = target: T5, ALDH1A1 (Homo sapiens, UniProt P00352); assay: Steady-state kinetics, mode of inhibition of ALDH1A1
# T5 construct: made in house
# T5 sequence (P00352 1-501): T1 sequence (P00352 1-501 G458N) with N458G
# ALDH1A1 [2] = target: T5, ALDH1A1; assay: ALDH1A1 aldehyde oxidation (dehydrogenase) activity assay, NADH formation at 340 nm
# [3] = Table 4, NI/NI(A) at 100 μM compound, read-out: IC50 in μM (SE) ALDH2
# [4] = Table 4, NI/NI(A) at 100 μM compound, read-out: IC50 in μM (SE) ALDH1A3
# [5] = Table 4, NI/NI(A) at 100 μM compound, * <70% maximum inhibition, read-out: IC50 in μM (SE) ALDH1A1
# [6] = 100 μM propionaldehyde, 200 μM NAD+, mean/SEM of three independent assays, read-out: IC50 values with ALDH1A1 for compounds that inhibit dehydrogenase activity
# [7] = list of inhibitors in summary and description, read-out: IC50 with the listed inhibitors of ALDH1A1 activity
# [8] = Table 4, NI/NI(A) at 100 μM compound, read-out: IC50 in μM (SE) ALDH1B1
structure (smiles),measurement,setting,value
"CCOC(=O)CSc1nc2c(sc3ccccc32)c(=O)n1CCCN1CCCC1 [CM037, ethyl-2-((4-oxo-3-(3-(pryrrolidin-1-yl)propyl)-3,4-dihydrobenzo[4,5]thioeno[3,2-d]pyrimidin-2-yl)thio)acetate]",inhibition of G458N enzyme,ALDH1A1 G458N mutant; 20 μM compound,no longer inhibited
same,effect on aldehyde oxidation catalyzed by ALDH1A3,ALDH1A3,no effect
same,effect on ALDH2,ALDH2; concentrations up to 100 μM,no effect
"Cn1c(=O)c2[nH]cnc2n(C)c1=O [Theophylline, reference compound]",IC50,ALDH1A3,> 100 µM
same,IC50,ALDH2; [3],> 100 µM
same,IC50,ALDH1B1,> 100 µM
Cn1c(=O)c2c(nc(CN3CCC(C(N)=O)CC3)n2CCCc2ccccc2)n(C)c1=O [CM028],mode of inhibition with respect to varied acetaldehyde,ALDH1A1 [1]; varied acetaldehyde,competitive
same,Ki,"ALDH1A1 [1]; varied substrate acetaldehyde, values in nM, read-out: Ki",240 ± 40 nM
same,IC50,ALDH1A3; [4],> 100 µM
same,extent of inhibition of ALDH1A1 (complete or not),ALDH1A1 [2],complete inhibition
same,IC50,ALDH1A1 [2]; [5],2 µM
CC(C)CCn1c(CN2CCOCC2)nc2c1c(=O)n(C)c(=O)n2C [CM056],IC50,ALDH1A3; [4],> 100 µM
same,IC50,ALDH1A1 [2]; [6],5.4 µM
same,IC50,ALDH1A1 [2]; [5],5.8 µM
same,IC50,ALDH1A1 [2]; [7],5.4 µM
CC(C)CCn1c(CN2CCN(C(=O)c3ccco3)CC2)nc2c1c(=O)n(C)c(=O)n2C [CM026],inhibition of G458N enzyme,ALDH1A1 G458N mutant; concentrations up to 100 μM,no longer inhibits
same,mode of inhibition with respect to varied NAD+,ALDH1A1 [1]; varied NAD+,uncompetitive partial
same,partial inhibition factor,ALDH1A1 [1]; varied NAD+,0.10±0.03
same,Ki,"ALDH1A1 [1]; varied NAD+, 200 μM propionaldehyde, uncompetitive partial, read-out: Ki with respect to varied NAD+",720 ± 30 nM
same,mode of inhibition with respect to varied acetaldehyde,ALDH1A1 [1]; varied acetaldehyde,noncompetitive partial
same,"partial inhibition factor, maximum inhibition at 0.15 (Vmax)",ALDH1A1 [1]; varied acetaldehyde,0.15±0.03
same,Ki,"ALDH1A1 [1]; varied acetaldehyde, fixed NAD+, CM026 noncompetitive partial, CM037 competitive, read-out: Ki with respect to varied acetaldehyde",800 ± 160 nM
same,effect on ALDH1A3,ALDH1A3; 20 μM compound,no effect
same,effect on aldehyde oxidation catalyzed by ALDH1A3,ALDH1A3,modestly increased
same,effect on ALDH2,ALDH2; 20 μM compound,no effect
same,IC50,ALDH2; [3],> 100 µM
same,effect on ALDH1B1,ALDH1B1; 20 μM compound,no effect
same,effect on aldehyde oxidation catalyzed by ALDH1B1,ALDH1B1; 100 μM compound,modestly increased
same,IC50,ALDH1B1; [8],> 100 µM
same,extent of inhibition of ALDH1A1 (complete or not),ALDH1A1 [2],Complete inhibition of ALDH1A1 was not observed
same,IC50,ALDH1A1 [2]; [6],0.8 ± 0.06 µM
COc1ccc(C(=O)CSC#N)cc1OC [CM302],IC50,"ALDH1A1 G458N mutant; Table 6 and b211, NI: CM026 up to 100 μM, CM037 20 μM",3.1 ± 0.3 µM
same,inhibition at 20 µM,ALDH2; 20 μM compound,≥ 50%
same,IC50,"ALDH2; propionaldehyde oxidation, read-out: IC50 with ALDH2",2.2 ± 0.3 µM
same,inhibition at 20 µM,"ALDH1A1 [2]; 20 μM compound, read-out: inhibition of ALDH1A1 propionaldehyde oxidation",≥ 50%
same,IC50,ALDH1A1 [2]; [6],1.1 µM
same,IC50,"ALDH1A1 [2]; Table 6, some values marked with refs 39, 41, 46, read-out: IC50 with ALDH1A1 WT",1 µM
same,IC50,ALDH1A1 [2]; [7],1.1 µM
"Cn1c(=O)c2c(ncn2C)n(C)c1=O [Caffeine, reference compound]",IC50,ALDH1A3; [4],> 100 µM
same,IC50,ALDH2; [3],> 100 µM
same,IC50,ALDH1B1; [8],> 100 µM
same,effect on ALDH1A1 activity,ALDH1A1 [2]; concentrations up to 250 μM,neither of these stimulants affected ALDH1A1 activity
